Test results published in patent US8158587B2, “Compound having histone deacetylase-inhibiting activity, and pharmaceutical composition comprising the compound as an active ingredient” (Kyushu Institute of Technology, priority 2006, dated 2012).

Legend:
human HDAC1 = target: T1, human HDAC1 (Homo sapiens, UniProt Q13547); assay: HDAC-inhibiting activity, coumarin-labeled acetylated histone peptide assay; assay type: biochemical; conditions: human HDAC1 from transfected 293T cells; 37° C., 30 minutes
T1 construct: made in house; host or cells: 293T cells (transient transfection, anti-FLAG immunoprecipitation, FLAG peptide elution)
T1 sequence (Q13547 whole entry): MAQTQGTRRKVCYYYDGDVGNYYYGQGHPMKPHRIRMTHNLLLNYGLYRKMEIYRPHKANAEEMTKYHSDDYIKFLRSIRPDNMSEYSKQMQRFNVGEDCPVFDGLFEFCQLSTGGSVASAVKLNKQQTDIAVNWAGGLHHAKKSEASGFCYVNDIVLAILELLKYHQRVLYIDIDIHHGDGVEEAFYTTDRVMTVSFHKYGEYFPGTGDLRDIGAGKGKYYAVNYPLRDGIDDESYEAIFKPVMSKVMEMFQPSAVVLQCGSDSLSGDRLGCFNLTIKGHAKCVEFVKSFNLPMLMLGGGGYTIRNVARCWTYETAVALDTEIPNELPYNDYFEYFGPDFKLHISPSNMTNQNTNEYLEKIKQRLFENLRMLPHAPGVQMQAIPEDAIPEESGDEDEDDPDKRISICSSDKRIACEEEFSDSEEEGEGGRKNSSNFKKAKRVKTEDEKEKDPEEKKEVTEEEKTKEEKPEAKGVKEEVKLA
Protocol: (§1) In carrying out HDAC-inhibiting activity measurements, HDAC solutions were prepared in the following manner. In each 100-mm dish, there were sowed 1×10^7 293T cells and, after 24 hours, they were transfected with a vector (5 μg) expressing human HDAC1 or HDAC4 or murine HDAC6 using the LipofectAmine 2000 reagent (Invitrogen). The human HDAC1 expression vector used was pcDNA3-HD1 (Yang, W. M., Yao, Y. L., Sun, J. M., Davie, J. R. & Seto, E. (1997) J. Biol. Chem. 272, 28001-28007), the human HDAC4 expression vector used was pcDNA3-HD4 (Fischle, W., Emiliani, S., Hendzel, M. J., Nagase, T., Nomura, N., Voelter, W. & Verdin, E. (1999) J. Biol. Chem. 274, 11713-11720), and the murine HDAC6 expression vector used was pcDNA3-mHDA2/HDAC6 (Verdel, A. & Khochbin, S. (1999) J. Biol. Chem. 274, 2440-2445).
(§2) After 24 hours of incubation, cells were recovered, washed with PBS, suspended in lysis buffer (50 mM Tris-HCl (pH 7.5), 120 mM NaCl, 5 mM EDTA, 0.5% Nonidet P-40), and sonicated. The supernatant was collected by centrifugation and then deprived of nonspecific proteins using Protein A/G plus agarose beads (Santa Cruz Biotechnologies, Inc.). Thereafter, anti-FLAG M2 antibody (Sigma-Aldrich Inc.) was added, and the reaction was allowed to proceed at 4° C. for 2 hours.
(§3) To this were added agarose beads, the reaction was allowed to proceed at 4° C. for 3 hours, and the agarose beads were washed three times with lysis buffer and then once with HD buffer (20 mM Tris-HCl (pH 8.0), 150 mM NaCl, 10% glycerol). The protein bound to the agarose beads was recovered by 1 hour of incubation with FLAG peptide (40 μg) (Sigma-Aldrich Inc.) in HD buffer (200 μl) at 4° C., and the liquid recovered was used, as a reactant solution, in the HDAC-inhibiting activity measurement described below.
(§4) HDAC-inhibiting activity evaluation in each in vitro system was made as follows. Each test compound was dissolved in DMSO, a stock solution with a concentration of 10 mM was thus prepared and this was used as an inhibitor stock solution. The assay was carried out by incubating the HDAC solution and a coumarin-labeled acetylated histone peptide solution in the presence of the test compound at 37° C. for 30 minutes (reaction volume 20 μl). To the reaction mixture was added 30 μl of trypsin, and the aminomethylcoumarin released by the enzymatic reaction was assayed using a fluorescent plate reader. In a negative control assay, no inhibitor was added to the reaction system and the same procedure was carried out.

murine HDAC6 = target: T2, murine HDAC6 (Mus musculus, UniProt Q9Z2V5); assay: as above; assay type: biochemical; conditions: murine HDAC6 from transfected 293T cells; 37° C., 30 minutes
T2 construct: made in house; host or cells: 293T cells (transient transfection, anti-FLAG immunoprecipitation, FLAG peptide elution)
T2 sequence (Q9Z2V5 1-1149): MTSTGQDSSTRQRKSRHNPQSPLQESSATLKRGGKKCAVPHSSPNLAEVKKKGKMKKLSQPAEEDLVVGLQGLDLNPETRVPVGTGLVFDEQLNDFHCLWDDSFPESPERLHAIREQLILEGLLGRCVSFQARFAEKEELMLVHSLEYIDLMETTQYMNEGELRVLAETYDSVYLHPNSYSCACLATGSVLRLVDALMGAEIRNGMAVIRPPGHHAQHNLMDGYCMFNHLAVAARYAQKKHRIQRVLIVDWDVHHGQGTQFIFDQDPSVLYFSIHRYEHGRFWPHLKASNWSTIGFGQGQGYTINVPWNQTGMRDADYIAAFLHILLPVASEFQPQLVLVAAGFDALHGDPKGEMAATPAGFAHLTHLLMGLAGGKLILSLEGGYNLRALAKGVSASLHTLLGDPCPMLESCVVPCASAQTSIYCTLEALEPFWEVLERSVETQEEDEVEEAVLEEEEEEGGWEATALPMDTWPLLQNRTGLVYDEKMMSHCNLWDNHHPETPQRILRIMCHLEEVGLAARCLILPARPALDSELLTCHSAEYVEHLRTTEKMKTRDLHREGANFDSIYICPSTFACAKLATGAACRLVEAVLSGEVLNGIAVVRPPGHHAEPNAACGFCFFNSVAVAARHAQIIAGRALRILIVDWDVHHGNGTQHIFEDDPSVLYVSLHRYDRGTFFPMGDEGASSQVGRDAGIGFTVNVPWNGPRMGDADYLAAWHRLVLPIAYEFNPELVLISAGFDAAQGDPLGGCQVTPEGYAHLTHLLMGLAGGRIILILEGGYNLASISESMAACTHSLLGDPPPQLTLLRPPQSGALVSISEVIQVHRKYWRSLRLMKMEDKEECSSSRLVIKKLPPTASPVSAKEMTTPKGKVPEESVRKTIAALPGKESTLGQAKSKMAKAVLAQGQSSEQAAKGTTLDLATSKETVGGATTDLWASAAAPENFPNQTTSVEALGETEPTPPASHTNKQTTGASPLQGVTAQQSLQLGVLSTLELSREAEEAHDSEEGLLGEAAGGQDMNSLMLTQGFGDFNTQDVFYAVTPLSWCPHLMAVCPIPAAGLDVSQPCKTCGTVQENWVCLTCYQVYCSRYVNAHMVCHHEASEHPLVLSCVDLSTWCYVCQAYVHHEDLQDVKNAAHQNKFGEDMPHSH
Protocol: as §1, §2, §3, §4

[1] = system: colon cancer cell line KM-12; assay: Human cancer cell line panel, proliferation (sulforhodamine B); assay type: cell-based; conditions: KM-12, 2 days of cultivation; read-out: 50% inhibitory concentration, proliferation

Row | IC50 (human HDAC1) [nM] | IC50 (murine HDAC6) [nM] | IC50 [1] [nM] | Structure (SMILES)
1 | 50 | 1400 |  | CC1(C)NC(=O)[C@H](CCCCCSCc2ccncc2)NC(=O)[C@H]2CCCN2C(=O)[C@H](Cc2ccccc2)NC1=O [Ky-26, cyclo(-L-Am7(4-pyridylmethyl)-Aib-L-Phe-D-Pro-)]
2 |  |  | ≤ 100 | CC(=O)CSCCCCC[C@@H]1NC(=O)[C@H]2CCCN2C(=O)[C@H](Cc2ccccc2)NC(=O)C(C)(C)NC1=O [Ky-72, cyclo(-L-Am7(acetonyl)-Aib-L-Phe-D-Pro-)]
